Experimental data as given in the NIST ThermoML archive (doi:10.1021/je100260z).
Several values for one entry are separate records, joined by “and”; a condition that tells them apart may be missing. Equal entries are not always repeated.

Conditions: Crystal, Torsion effusion method

[F][Pb][F] [lead(II) fluoride]
Conditions	vapor or sublimation pressure
793 K	0.000361 kPa
798 K	0.000411 kPa
803 K	0.000411 kPa
808 K	0.000454 kPa
810 K	0.000454 kPa
811 K	0.000487 kPa
816 K	0.000522 kPa
818 K	0.000554 kPa
820 K	0.000554 kPa
824 K	0.000613 kPa
825 K	0.000613 kPa
827 K	0.000613 kPa
830 K	0.000638 kPa
833 K	0.000664 kPa
835 K	0.000705 kPa
837 K	0.000748 kPa
840 K	0.000771 kPa
841 K	0.000748 kPa
845 K	0.000861 kPa and 0.000827 kPa
846 K	0.000827 kPa
852 K	0.000951 kPa
854 K	0.00098 kPa
856 K	0.00101 kPa
858 K	0.00098 kPa
859 K	0.00098 kPa
863 K	0.001116 kPa
867 K	0.001185 kPa and 0.001116 kPa
868 K	0.001234 kPa
873 K	0.001323 kPa and 0.001284 kPa
875 K	0.001323 kPa
876 K	0.001284 kPa
878 K	0.001391 kPa
882 K	0.001507 kPa
883 K	0.001477 kPa
884 K	0.001419 kPa
886 K	0.001507 kPa
890 K	0.001632 kPa
891 K	0.001682 kPa
895 K	0.001716 kPa
899 K	0.00184 kPa
900 K	0.001896 kPa
903 K	0.001916 kPa
904 K	0.001916 kPa
905 K	0.001896 kPa
910 K	0.002138 kPa and 0.002117 kPa
912 K	0.002075 kPa
913 K	0.002096 kPa
914 K	0.002203 kPa
919 K	0.002387 kPa
921 K	0.002411 kPa
923 K	0.002387 kPa
928 K	0.002638 kPa
931 K	0.002664 kPa
933 K	0.002746 kPa
934 K	0.002801 kPa
948 K	0.003456 kPa
951 K	0.003669 kPa

[F][Pb]([F])([F])[F] [lead(IV) fluoride]
Conditions	vapor or sublimation pressure [kPa]
603 K	0.000566
612 K	0.000677
622 K	0.000844
628 K	0.000844
631 K	0.00097
634 K	0.000942
635 K	0.001062
638 K	0.001116
639 K	0.001116
644 K	0.001259
645 K	0.001139
647 K	0.001209
648 K	0.001336
653 K	0.001297
654 K	0.001492
657 K	0.0016
658 K	0.001448
663 K	0.001584
664 K	0.001751
666 K	0.00184
668 K	0.001751
669 K	0.001896
670 K	0.001974
673 K	0.001878
675 K	0.002096
676 K	0.001974
682 K	0.00234
684 K	0.002203
